Measurements from patent publication US20240317777A1, “NOVEL MACROCYCLIC AMINOPYRAZOLE COMPOUNDS AS CDK2 INHIBITORS” (Accutar Biotechnology Inc., priority 2023, published 2024).

Columns and labels:
Assay type in all cases: cell-based
CCNE1-normal SKOV3 cells = assay: Cell growth inhibition of CCNE1-normal SKOV3 cells (CellTiter-Glo); details: Homo sapiens, SK-OV-3, 144 h, 6 days
Description: Cell Growth Inhibition of CCNE1-Normal SKOV3 Cells
(§1) SKOV3 cells were obtained from American Type Culture Collection (ATCC, HTB-77). SKOV3 cells were seeded in 96-well plates at 1000 cells/well in 90 μl of RPM11640 growth medium containing 10% FBS and 1% Penicillin Streptomycin, and then incubated at 37° C. overnight. The following day, the test compound was administered to the cells by using 1000× compound stock solution prepared in DMSO at various concentrations. 1000× compound stock solution was first diluted in culturing medium to 10x, then 10 uL compound medium was added to each well in the cell plates. After administration of the compound, the cells were then incubated at 37° C. for 6 days. Upon completion, the plates were equilibrated at room temperature for approximately 10 minutes. 100 ul of CellTiter-Glo® Reagent (Promega) was added to each well. The plates were then incubated at room temperature for 10 minutes and luminescence was recorded by EnSpire plate reader (PerkinElmer).

[1] = test system: Phospho-Rb (Ser807/811) in OVCAR3 cells; assay: Phospho-Rb expression inhibition in OVCAR3 cells quantified by In Cell Western; details: Homo sapiens, OVCAR-3, 24 hours, read-out: OVCAR-3 pRb IC50
Description: Phospho-Rb Expression Inhibition in OVCAR3 Cells Quantified by in Cell Western
OVCAR3 cells were obtained from American Type Culture Collection (ATCC, HTB-161). OVCAR3 cells were plated in 96-well plates (VWR #10062-900, or Corning #3904) in 90 uL culture medium at a density of 20,000 cells/well in the RPM11640 growth medium containing 10% FBS and 1% Penicillin Streptomycin, and then incubated at 37° C. overnight. The following day, the test compound was administered to the cells by using 1000× compound stock solution prepared in DMSO at various concentrations. 1000× compound stock solution was first diluted in culturing medium to 10x, then 10 uL compound medium was added to each well in the cell plates. After administration of the compound, the cells were then incubated at 37° C. for 24 hours. Upon completion, the cells were washed with PBS briefly. 150 uL/well of 4% formaldehyde was added and the plates were incubated at room temperature for 20 mins. The cells were washed with PBS briefly, and permeabilized with 150 uL/well of ice cold 100% methanol for 10 mins. The cells were washed with PBS briefly and blocked with 100 uL/well LI-COR blocking buffer for 1 hr at room temperature with gentle shaking. The cells were incubated overnight at 4° C. with 50 uL primary antibody rabbit anti-Phospho-Rb (Ser807/811) (1:500, Cell Signaling, #8516) and anti-Rb (1:200, Santa Cruz, sc-73598) diluted in Intercept Blocking Buffer (LI-COR, #927-60001) containing 0.1% Tween 20. The next day, the cells were washed with 200 uL PBS containing 0.1% Tween 20, 5×5 mins at room temperature with gentle shaking, and incubated with 50 uL secondary antibody, IRDye® 800CW Goat anti-Rabbit IgG (1:1000, LI-COR, #926-32211) and IRDye® 680RD Goat anti-Mouse IgG (1:1000, LI-COR, #926-68070), in LI-COR blocking buffer with 0.2% Tween 20 for 1 hr at room temperature with gentle shaking. The cells were washed with 200 uL PBS containing 0.1% Tween 20, 5×5 mins at room temperature with gentle shaking. The cells were washed with PBS for 5 mins. 100 uL fresh PBS was added to each well and the plates were imaged on a LI-COR Odyssey CLX plate reader.

[2] = test system: CCNE1-amplified OVCAR3 cells; assay: Cell growth inhibition of CCNE1-amplified OVCAR3 cells (CellTiter-Glo); details: Homo sapiens, OVCAR-3, 144 h, 6 days
Description: Cell Growth Inhibition of CCNE1-Amplified OVCAR3 Cells
as §1, with “OVCAR3 cells” for “SKOV3 cells were obtained from American Type Culture Collection (ATCC, HTB-77). SKOV3 cells”, “at 2000” for “at 1000”

IC50 [1] [nM]	IC50 [2] [nM]	Structure (SMILES)	IC50 (CCNE1-normal SKOV3 cells) [nM]
50 to 250	50 to 250	O=C1NC23CC(COc4cc(ccn4)Nc4cc([nH]n4)[C@H]4CC[C@H](C4)O1)(C2)C3 [Compound 18, (1^1S,1^3R,Z)-2^1H-5,10-dioxa-3,8-diaza-4(4,2)-pyridina-2(3,5)-pyrazola-7(1,3)-bicyclo[1.1.1]pentana-1(1,3)-cyclopentanacyclodecaphan-9-one]	> 1250
2 to 10	10 to 50	C[C@H]1NC(=O)O[C@@H]2CC[C@@H](C2)c2cc([nH]n2)Nc2ccnc(c2)OCCC1(F)F [Compound 220, (1^1S,1^3R,9R,Z)-8,8-difluoro-9-methyl-2^1H-5,12-dioxa-3,10-diaza-4(4,2)-pyridina-2(3,5)-pyrazola-1(1,3)-cyclopentanacyclododecaphan-11-one]	250 to 1250
≤ 2	≤ 2	O=C1NC23CC(CCCc4cc(cc(C(F)F)n4)Nc4cc(n[nH]4)[C@H]4CC[C@H](C4)O1)(C2)C3 [Compound 98, (1^1S,1^3R,Z)-4^6-(difluoromethyl)-2^1H-11-oxa-3,9-diaza-4(4,2)-pyridina-2(3,5)-pyrazola-8(1,3)-bicyclo[1.1.1]pentana-1(1,3)-cyclopentanacycloundecaphan-10-one]	10 to 50
50 to 250	50 to 250	C[C@H]1NC(=O)O[C@@H]2CC[C@@H](C2)c2n[nH]c(c2F)Nc2ccnc(c2)OCCC1(F)F [Compound 228, (1^1S,1^3R,9R,E)-2^4,8,8-trifluoro-9-methyl-2^1H-5,12-dioxa-3,10-diaza-4(4,2)-pyridina-2(3,5)-pyrazola-1(1,3)-cyclopentanacyclododecaphan-11-one]	> 1250
10 to 50	50 to 250	[2H]C1([2H])CC[C@H](C)NC(=O)O[C@@H]2CC[C@@H](C2)c2cc([nH]n2)Nc2cc(F)nc(c2)O1 [Compound 179, (1^1S,1^3R,9S,Z)-4^6-fluoro-9-methyl-2^1H-5,12-dioxa-3,10-diaza-4(4,2)-pyridina-2(3,5)-pyrazola-1(1,3)-cyclopentanacyclododecaphan-11-one-6,6-d2]	> 1250
2 to 10	10 to 50	C[C@H]1CCCOc2nccc(c2F)Nc2cc(n[nH]2)[C@H]2CC[C@H](C2)OC(=O)N1 [Compound 176, (1^1S,1^3R,9S,Z)-4^3-fluoro-9-methyl-2^1H-5,12-dioxa-3,10-diaza-4(4,2)-pyridina-2(3,5)-pyrazola-1(1,3)-cyclopentanacyclododecaphan-11-one]	250 to 1250
2 to 10	10 to 50	[2H]C1([2H])CC(F)(F)[C@H](C)NC(=O)O[C@@H]2CC[C@@H](C2)c2cc([nH]n2)Nc2ccnc(c2)O1 [Compound 182, (1^1S,1^3R,9S,Z)-8,8-difluoro-9-methyl-2^1H-5,12-dioxa-3,10-diaza-4(4,2)-pyridina-2(3,5)-pyrazola-1(1,3)-cyclopentanacyclododecaphan-11-one-6,6-d2]	250 to 1250
10 to 50	50 to 250	C[C@@H]1NC(=O)O[C@@H]2CC[C@@H](C2)c2n[nH]c(c2F)Nc2ccnc(c2)OCCC1(F)F [Compound 188, (1^1S,1^3R,9S,E)-2^4,8,8-trifluoro-9-methyl-2^1H-5,12-dioxa-3,10-diaza-4(4,2)-pyridina-2(3,5)-pyrazola-1(1,3)-cyclopentanacyclododecaphan-11-one]	> 1250
≤ 2	≤ 2	O=C1NC23CC(CCCc4cncc(c4)Nc4cc(n[nH]4)[C@H]4CC[C@H](C4)O1)(C2)C3 [Compound 118, (1^1S,1^3R,Z)-2^1H-11-oxa-3,9-diaza-4(3,5)-pyridina-2(3,5)-pyrazola-8(1,3)-bicyclo[1.1.1]pentana-1(1,3)-cyclopentanacycloundecaphan-10-one]	10 to 50
10 to 50	> 250	C[C@@H]1OCCCNC(=O)O[C@@H]2CC[C@@H](C2)c2cc([nH]n2)Nc2ccnc1c2 [compound 72]	> 1250
50 to 250	50 to 250	C[C@@H]1Oc2cc(ccn2)Nc2cc(n[nH]2)[C@H]2CC[C@H](C2)OC(=O)N[C@H]2C[C@@H]1C2 [Compound 145, (1^1S,1^3R,7^1S,7^3R,6S,Z)-6-methyl-2^1H-5,10-dioxa-3,8-diaza-4(4,2)-pyridina-2(3,5)-pyrazola-1(1,3)-cyclopentana-7(1,3)-cyclobutanacyclodecaphan-9-one]	> 1250
10 to 50	10 to 50	O=C1NC23CC(CCc4cc(cc(C(F)F)n4)Nc4cc([nH]n4)[C@H]4CC[C@H](C4)O1)(C2)C3 [compound 20]	> 1250
10 to 50	50 to 250	O=C1NCCCCCOc2cc(ccn2)Nc2cc([nH]n2)[C@H]2CC[C@H](C2)O1 [Compound 3, (1^1S,1^3R,Z)-2^1H-5,13-dioxa-3,11-diaza-4(4,2)-pyridina-2(3,5)-pyrazola-1(1,3)-cyclopentanacyclotridecaphan-12-one]	> 1250
10 to 50	10 to 50	O=C1NCCCCOc2cc(ccn2)Nc2cc([nH]n2)[C@H]2CC[C@H](C2)O1 [Compound 1, (1^1S,1^3R,Z)-2^1H-5,12-dioxa-3,10-diaza-4(4,2)-pyridina-2(3,5)-pyrazola-1(1,3)-cyclopentanacyclododecaphan-11-one]	> 1250
10 to 50	10 to 50	O=C1NCCCOC2(CC2)c2cc(ccn2)Nc2cc([nH]n2)[C@H]2CC[C@H](C2)O1 [Compound 26, (1'S,3′R,Z)-spiro[cyclopropane-1,5′-6,12-dioxa-3,10-diaza-4(4,2)-pyridina-2(3,5)-pyrazola-1(1,3)-cyclopentanacyclododecaphan]-11′-one]	250 to 1250
10 to 50	50 to 250	C[C@@H]1/C=C/COc2cc(ccn2)Nc2cc(n[nH]2)[C@H]2CC[C@H](C2)OC(=O)N1 [Compound 138, (1^1S,1^3R,2^4Z,7E,9R)-9-methyl-2^1H-5,12-dioxa-3,10-diaza-4(4,2)-pyridina-2(3,5)-pyrazola-1(1,3)-cyclopentanacyclododecaphan-7-en-11-one]	> 1250
≤ 2	2 to 10	C[C@H]1CCC(C)(C)NC(=O)O[C@@H]2CC[C@@H](C2)c2cc([nH]n2)Nc2cncc(c2)O1 [Compound 124, (1^1S,1^3R,6S,Z)-6,9,9-trimethyl-2^1H-5,12-dioxa-3,10-diaza-4(3,5)-pyridina-2(3,5)-pyrazola-1(1,3)-cyclopentanacyclododecaphan-11-one]	10 to 50
2 to 10	10 to 50	C[C@H]1C/C=C\C(F)(F)c2cc(ccn2)Nc2cc(n[nH]2)[C@H]2CC[C@H](C2)OC(=O)N1 [Compound 167, (1^1S,1^3R,2^4Z,9S)-5,5-difluoro-9-methyl-2^1H-12-oxa-3,10-diaza-4(4,2)-pyridina-2(3,5)-pyrazola-1(1,3)-cyclopentanacyclododecaphan-6-en-11-one]	250 to 1250
